Reference: PubChem BioAssay (NCI)
Several values for one entry are separate records, joined by “and”; a condition that tells them apart may be missing. Equal entries are not always repeated.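 Step 1: Grow cells in 96-well plates. Step 2: Expose to compound for 48 hours at 5 concentrations. Step 3: Interpolate endpoints linearly; if unreached, use highest concentration. GI50 = concentration required for 50% inhibition of growth. At the TGI there is no net growth.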 Where a SMILES comes first, the peptide text is derived from it. The star is where a group is joined. Cbz = O=C(OCc1ccccc1)*; Boc = CC(C)(C)OC(=O)*; OSu = O=C1CCC(=O)N1O*; Bn = c1ccc(C*)cc1

What was measured:
Experiment in all cases: NCI anticancer screen, dose series, 48 h
[1] = test system: K-562 leukemia
[2] = test system: SNB-19 CNS
[3] = test system: HS 578T breast
[4] = test system: EKVX NSCLC

SMILES	TGI [1]	TGI [2]	TGI [3]	TGI [4]	GI50 [1]
CCOC(=O)[C@@]12C3C=CC(CC3)[C@]1(C(=O)c1ccccc1)C(=O)C(=O)N2c1ccccc1 (stereo partly specified)	> 100 µM	> 100 µM	–	–	–
c1ccc([P+](Cc2ccccc2C[P+](c2ccccc2)(c2ccccc2)c2ccccc2)(c2ccccc2)c2ccccc2)cc1	> 100 µM	> 100 µM	> 100 µM	–	–
CNC(=O)N(CCC#N)CCCN(C(=O)NC)c1ccccc1	> 100 µM	> 100 µM	–	> 100 µM	–
CC(=O)Nc1ccc(-c2nc3ccccc3s2)cc1I	> 100 µM	> 87.5 µM	> 100 µM	80.1 µM	–
O=C(Nc1ccccc1)N(C1=NCC(CI)S1)c1ccc(F)cc1F (stereo unspecified)	> 100 µM	> 100 µM	> 100 µM	> 100 µM	–
C=C(C)[C@H]1C=C[C@@H](OC(=O)c2cccnc2)[C@@]23CO[C@@](C)([C@H](OC(=O)c4cccnc4)[C@@]4(OC(C)=O)C[C@H](C)[C@H](OCCC)[C@@H]4[C@H]2OC(C)=O)[C@H]13	> 15 µM	> 15 µM	> 15 µM	> 15 µM	–
COc1ccc2[nH]cc([C@@H]3C4CCC(C4)[C@H]3NCc3cccc(CN[C@H]4C5CCC(C5)[C@@H]4c4c[nH]c5ccc(OC)cc45)c3)c2c1	–	2.94 µM	–	2.91 µM and 2.89 µM	0.375 µM
Cc1oc2c(Cl)cc(O)c(Cl)c2c2cccc1-2	47.4 µM	> 100 µM	> 100 µM	54.6 µM	–
CCCCCCOc1ccc(C(=O)NO)cc1	57.7 µM	54.8 µM	67.2 µM	52.7 µM	–
CC(C)(C)OC(=O)NC(Cc1ccc(OCc2ccccc2)cc1)C(=O)NC(CCCCNC(=O)OCc1ccccc1)C(=O)ON1C(=O)CCC1=O (stereo unspecified) (Boc-Tyr(Bn)-Lys(Cbz)-OSu; configuration not given here)	73.6 µM	35.3 µM	67.1 µM	> 100 µM	–
CC(NC(=O)C(N)CC(=O)O)NC(=O)C1CCC1 (stereo unspecified)	> 100 µM	> 100 µM	> 100 µM	> 100 µM	–
c1ccc(-n2nc3ccc4nonc4c3n2)cc1	> 100 µM	> 100 µM	–	> 100 µM	–
O=c1[nH]nc(Cc2ccccc2)n1/N=C\c1ccccc1	> 100 µM	–	> 100 µM	> 100 µM	–
CC1=CC[C@@]2(CO)[C@@H]([C@@H]1C)[C@H]1CC[C@@H]3[C@@]4(C)CC[C@H](O)C(C)(C)[C@@H]4CC[C@@]3(C)[C@]1(C)C[C@@H]2O	> 100 µM	> 100 µM	> 100 µM	> 100 µM	–
COc1cccc2c1OC(c1ccc(C#N)cc1)C([N+](=O)[O-])=C2 (stereo unspecified)	> 100 µM	19.2 µM	5.74 µM	18.9 µM	–
N#Cc1c(N)[nH]c(=S)c(C#N)c1-c1ccccc1	> 100 µM	> 100 µM	> 100 µM	> 100 µM	–
CC(NC(=O)c1ccccc1)NC(=O)C(C)C(=O)Nc1ccccc1 (stereo unspecified)	> 100 µM	71.7 µM	> 100 µM	> 100 µM	–
CCCCC(Sc1cc(Cl)c(C)cc1S(=O)(=O)Nc1n[nH]c(N)n1)C(=O)OC (stereo unspecified)	> 10 µM	> 10 µM	> 10 µM	> 10 µM	–
C=C(C)[C@@]1(OC(=O)c2cc([N+](=O)[O-])cc([N+](=O)[O-])c2)C[C@@H]2CCCC[C@@H]21	> 100 µM	> 100 µM	> 100 µM	> 100 µM	–
COC(CC1(/C=C/O[Si](C(C)C)(C(C)C)C(C)C)C(=O)N(C)c2ccccc21)OC (stereo unspecified)	> 100 µM	> 100 µM	45.2 µM	> 100 µM	–
N#C/C(C(=O)Nc1ccc(Cl)cc1)=C(/N)N1CCCCC1	> 100 µM	> 100 µM	–	> 100 µM	–
COCCCNC(=O)C1=C(C)NC(C)=C(C(=O)NCCCOC)C1	> 100 µM	> 100 µM	> 100 µM	40.5 µM	–
CC(=O)Nc1ccc2[nH]c(-c3cccc(Cl)c3)cc(=O)c2c1	–	> 100 µM	> 100 µM	> 100 µM	–
Cc1ccc(Nc2c(C#N)[n+]([O-])c3cc(Cl)ccc3[n+]2[O-])cc1	> 100 µM	> 100 µM	> 100 µM	> 100 µM	–
CC(SC(=S)N1CCOCC1)C(=O)Nc1nnc(-c2ccccc2)o1 (stereo unspecified)	> 100 µM	> 100 µM	> 100 µM	> 100 µM	–

SMILES	TGI [1]	TGI [2]	TGI [3]	TGI [4]	GI50 [1]
CN(C)S(=O)(=O)/N=C/c1cccc(/C=N/S(=O)(=O)N(C)C)c1	> 100 µM	> 100 µM	–	> 100 µM	–
CCOC(=O)[C@@]12C[C@](/C=C/OC)(O[Si](C)(C)C)[C@@]13c1cc(OC)c(OC)cc1CCN3C(=O)C2O (stereo partly specified)	> 100 µM	> 100 µM	> 100 µM	> 100 µM	–
Cc1ncc2c(=O)c3c(oc2n1)c1ccccc1n3Cc1ccccc1	> 100 µM	> 100 µM	> 100 µM	> 100 µM	–
CCC[C@H](NS(=O)c1ccc(C)cc1)C(C(=O)OCC)=C(c1ccccc1)c1ccccc1 (stereo partly specified)	> 100 µM	> 100 µM	71.2 µM	38.6 µM	–
C[n+]1c(-c2ccc(/C=N/NC(=O)C(=O)N/N=C/c3ccc(-c4cn5ccsc5[n+]4C)cc3)cc2)cn2ccsc21	> 100 µM	> 100 µM	> 100 µM	> 100 µM	–
C=CCSC1=N/C(=C\c2cccs2)C(=O)N1CC=C	> 100 µM	> 100 µM	> 100 µM	71.4 µM	–
O=C(CSc1nc2[nH]ncc2c(=O)[nH]1)c1ccc(Cl)cc1	> 100 µM	> 100 µM	> 100 µM	> 100 µM	–
c1cc2c(c(NC3=NCCO3)c1)CCC2	> 100 µM	> 100 µM	> 100 µM	> 100 µM	–
Cc1nnc2sc(NN)nn12	> 100 µM	> 100 µM	> 100 µM	> 100 µM	–
COc1ccc2cc(C(=O)O)ccc2c1OC	> 100 µM	> 100 µM	> 100 µM	–	–
CCN(CC)c1ccc2cc(C(=O)Nc3ccccc3)c(=N)oc2c1	> 100 µM	> 100 µM	> 100 µM	> 100 µM	–
C=C[C@@H]1C[C@]2(C(=O)OC)Cc3nc4ccccc4nc3CC(C(=O)OC)=C2O1	–	> 100 µM	> 100 µM	> 100 µM	–
Cc1ccc(S(=O)(=O)N2CCSCCN(S(=O)(=O)c3ccc(C)cc3)CCN(S(=O)(=O)c3ccc(C)cc3)CC2)cc1	> 100 µM	> 100 µM	> 100 µM	> 100 µM	–
CC1Oc2c(c(=O)oc3ccccc23)[C@@]1(C)CC1C[C@H](C)C(=O)O1 (stereo partly specified)	66 µM	> 100 µM	> 100 µM	> 100 µM	–
COc1cc(C2C(C#N)=C(N)OC3=C2CCS(=O)(=O)c2ccc(C)cc23)cc(OC)c1OC (stereo unspecified)	> 100 µM	> 100 µM	> 100 µM	–	–
CN(NC(=O)c1cccs1)C1=NCCCCN1	> 100 µM	> 100 µM	> 100 µM	> 100 µM	–
Clc1cc(Cl)cc(C2ON=C(c3ccccc3)N2C23CC4CC(CC(C4)C2)C3)c1 (stereo unspecified)	> 10 µM	> 10 µM	> 10 µM	> 10 µM	–
COC(=O)[C@@H]1CN(C(C)=O)C(=O)N1C(=O)OCc1ccccc1	> 100 µM	> 100 µM	> 100 µM	> 100 µM	–
Cc1nc(N/N=C/c2ccccc2Cl)[nH]c(=O)c1CCO	> 100 µM	> 100 µM	81.1 µM	> 100 µM	–
Oc1ccc(N=C2CCC(=C(c3ccccc3)c3ccc(Nc4ccc(O)cc4)cc3)CC2)cc1	> 100 µM	> 100 µM	–	–	–
CC(C)NC(=O)OCc1c(COC(=O)NC(C)C)c(-c2cc[n+](COC(=O)C(C)(C)C)cc2)n2c1CCC2	> 100 µM	> 100 µM	> 100 µM	> 100 µM	–
Cc1nc2c(=O)n(-c3ccccc3)c3ccccc3c2o1	> 100 µM	> 100 µM	> 100 µM	> 100 µM	–
CC(=O)CSc1c(-c2ccccc2)c(=O)n(-c2ccccc2)c(=S)n1-c1ccccc1	> 100 µM	> 100 µM	> 100 µM	> 100 µM	–
CCN1C(=O)C(C)S/C1=N\NC(=O)CSc1nc2ccccc2c(=O)n1CC (stereo unspecified)	> 100 µM	> 100 µM	> 100 µM	> 100 µM	–
CC(C)(C)Nc1noc(=O)n1C(C)(C)C	> 100 µM	> 100 µM	> 100 µM	> 100 µM	–

SMILES	TGI [1]	TGI [2]	TGI [3]	TGI [4]	GI50 [1]
COc1ccc(OCc2ccc3nc(-c4ccccc4)c(Cl)nc3c2)cc1	> 100 µM	68.2 µM	> 100 µM	> 100 µM	–
CCOC(=O)CSc1nnc2cc(CN3CCCC3)c(-c3ccc(Cl)cc3)nn12	> 100 µM	> 100 µM	> 100 µM	> 100 µM	–
CN(N)c1cc(=O)[nH]c(=O)[nH]1	> 100 µM	> 100 µM	> 100 µM	> 100 µM	–
COc1cc(S(=O)(=O)Nc2ccc(-c3csc(N)n3)cc2)ccc1Cl	44.3 µM	33.8 µM	> 100 µM	30.2 µM	–
CC(=O)Nc1cc2c3c(c1)CCCN3CCC2	> 100 µM	> 100 µM	> 100 µM	> 100 µM	–
CCOC(=O)C(C)NC(=O)C(C)NC(=O)C(C)NC(=O)C(C)NC(=O)C(C)NC(=O)OCc1ccccc1 (stereo unspecified)	> 100 µM	> 100 µM	> 100 µM	> 100 µM	–
COc1cc2cccc(N)c2cc1OC	> 100 µM	> 100 µM	> 100 µM	> 100 µM	–
O=C(O)CCc1ccc2c(c1)C(=O)CC2	> 100 µM	> 100 µM	–	> 100 µM	–
COC(=O)C1OC(O[C@H]2CC[C@]3(C)[C@H]4CC=C5[C@@H]6CC(C)(C)CC[C@]6(C(=O)OC6OCC(O)C(O)C6OC6OC(C)C(OC7OCC(O)C(OC8OCC(O)C(O)C8O)C7O)C(OC7OCC(O)C(O)C7O)C6O)CC[C@@]5(C)[C@]4(C)CC[C@H]3C2(C)C)C(O)C(OC2OCC(O)C(O)C2O)C1O (stereo partly specified)	14.9 µM and 19.1 µM	> 100 µM and 20.1 µM	> 100 µM and 33.9 µM	16.3 µM and 14.8 µM	–
NCCN1C(=O)CN=C(c2ccc(Cl)cc2)c2cc(Cl)ccc21	34.8 µM	45.6 µM	35.8 µM	84.5 µM	–
N/N=C(\C(=O)Nc1ccc(Cl)cc1Cl)C(c1cnc2ccccc2n1)[N+](=O)[O-] (stereo unspecified)	> 100 µM	–	> 100 µM	> 100 µM	–
CN(C)P(=O)(Oc1ccc(CC(NC(=O)OCc2ccccc2)C(=O)OCc2ccccc2)cc1)N(C)C (stereo unspecified)	64.1 µM	38.6 µM	67.5 µM	32.2 µM	–
O=C(O)c1ccc(NC(NC(=O)C(C(F)(F)F)C(F)(F)F)(C(F)(F)F)C(F)(F)F)cc1	> 100 µM	> 100 µM	> 100 µM	> 100 µM	–
COC(=O)C(=O)C(C(=O)C(=O)Nc1nc2ccc(C)cc2s1)c1nc2ccc([N+](=O)[O-])cc2[nH]c1=O (stereo unspecified)	> 100 µM	> 100 µM	> 100 µM	> 100 µM	–
O=C(c1ccccc1)c1ccc(-n2c3ccccc3c3ccc4c(c32)C(=O)C=CC4=O)cc1	> 100 µM	36.4 µM	> 55.5 µM	26.3 µM	–
Cc1cc(S(=O)(=O)Nc2cc(N)[nH]n2)c(SCc2nc(N)nc(N(C)C)n2)cc1Cl	> 10 µM	> 10 µM	> 10 µM	> 10 µM	–
N#Cc1ccccc1NC(=O)C(=O)c1c(O)c2ccccc2oc1=O	> 100 µM	> 100 µM	> 100 µM	> 100 µM	–
O=C(O)c1cc(/C=C/c2cc(O)ccc2O)ccc1O	> 10 µM	> 10 µM	> 10 µM	> 10 µM	–
COc1cc(OC)c2nc(C)c3c(c2c1)NCC3	27.7 µM	40.7 µM	15.1 µM	–	–
c1ccc(CNCCCCNCCCNCc2ccccc2)cc1	34.2 µM	32.7 µM	29.7 µM	57.3 µM	–
COC(=O)/C=C1/CCC(C)(C(=O)NS(=O)(=O)c2ccc(C)cc2)C1(C)C (stereo unspecified)	> 100 µM	> 100 µM	–	> 100 µM	–
O=C(N=Nc1cccc(Cl)c1)NNc1cccc(Cl)c1	39.6 µM	> 100 µM	–	–	–
CCOC(=O)c1cnc2n(c1=N)[C@H]1CCCC[C@@H]1N2	> 100 µM	> 100 µM	> 100 µM	> 100 µM	–
